Results from patent publication US20250195530A1, “POLQ INHIBITORS” (ASTRAZENECA AB, priority 2022, published 2025).
Read-outs that look alike come from different tables or passages of the source. Each block holds one compound with its values, some of them ahead of it.

Tests used:
[1] = system: DLD-1 cells; assay: Inhibition of proliferation, DLD-1 BRCA2 wt control (Cell Titre Glo 3D); format: cell-based; settings: for IC50: Homo sapiens
In short: (§1)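 Luminescent Cell Titre Glo 3D readout, taken on day 12 for homologous-recombination-deficient DLD-1 BRCA2−/− and day 7 for the wild-type control, after compound refresh on day 6. Compounds spanned 10 μM to 0.51 nM in three-fold steps; IC50 defined as 50% reduction of average maximum signal.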

[2] = system: DLD-1 BRCA2−/− cells; assay: Homologous recombination synthetic lethal inhibition of proliferation, DLD-1 BRCA2-/- (Cell Titre Glo 3D); format: cell-based; settings: for IC50: Homo sapiens
In short: as §1

[3] = DLD-1, proliferation, luminescence, second Prolif column (c6), taken as DLD-1 BRCA2 wt control, read-out: POLQ PD Prolif Lumin (converted)
[4] = DLD-1, proliferation, luminescence, taken as DLD-1 BRCA2-/-, read-out: POLQ PD Prolif Lumin (converted)
[5] = DLD-1, second proliferation column (c6), taken as DLD-1 BRCA2 wt, read-out: POLQ PD Prolif Lumin (converted)
[6] = DLD-1, first proliferation column (c5), taken as DLD-1 BRCA2-/-, read-out: POLQ PD Prolif Lumin (converted)
[7] = DLD-1, second proliferation column (c6), DLD-1 BRCA2 wt control, read-out: POLQ PD Prolif Lumin (converted)
[8] = DLD-1, first proliferation column (c5), DLD-1 BRCA2-/-, read-out: POLQ PD Prolif Lumin (converted)
[9] = DLD-1, DLD1 BRCA2 wt cells, mean, read-out: POLQ PD Prolif Lumin DLD1 mean PIC50 (converted)
[10] = DLD-1, DLD-1 BRCA2 −/− cells, mean, read-out: POLQ PD Prolif Lumin BRCA2 −/− mean pIC50 (converted)
[11] = DLD-1, 168 h, DLD-1 BRCA2 wt cells, 7 days, read-out: POLQ PD Prolif Lumin DLD1 mean pIC50 (converted)
[12] = DLD-1, 288 h, DLD-1 BRCA2−/− cells, 12 days, read-out: POLQ PD Prolif Lumin BRCA2 −/− mean pIC50 (converted)

IC50 ([1]; DLD-1, DLD1 BRCA2 wt, mean, read-out: POLQ PD Prolif Lumin DLD1 mean pIC50 (converted)): > 10 µM
SMILES: COc1ccc(Cl)cc1Cn1c(-c2cccc(OCCOCC(=O)O)c2Cl)nc2c(OC3(C)CC3)ncnc21 [Example U52, 2-(2-(2-chloro-3-(9-(5-chloro-2-methoxybenzyl)-6-(1-methylcyclopropoxy)-9H-purin-8-yl)phenoxy)ethoxy)acetic acid]
IC50 ([2]; DLD-1, DLD-1 BRCA2 −/−, mean, read-out: POLQ PD Prolif Lumin BRCA2 −/− mean pIC50 (converted)): 0.0501 µM

IC50 [1, 3]: > 10 µM
SMILES: C[C@H](CCOc1ccc(-c2nc3c(OC4(C)CC4)ncnc3n2Cc2cccc(C#N)c2)c(Cl)c1)C(=O)O [Example T401, (R)-4-(3-chloro-4-(9-(3-cyanobenzyl)-6-(1-methylcyclopropoxy)-9H-purin-8-yl)phenoxy)-2-methylbutanoic acid]
IC50 [2, 4]: 0.398 µM

IC50 ([1]; DLD-1, DLD-1 BRCA2 wt control proliferation, column head only partly shown, read-out: POLQ PD Prolif Lumin (converted)): > 10 µM
SMILES: Cc1ncc(Cn2c(-c3ccc(OCCN4CCNCC4)cc3Cl)nc3c(OC4(C)CC4)ncnc32)s1 [Example T249, 5-((8-(2-chloro-4-(2-(piperazin-1-yl)ethoxy)phenyl)-6-(1-methylcyclopropoxy)-9H-purin-9-yl)methyl)-2-methylthiazole]
IC50 ([2]; DLD-1, DLD-1 BRCA2-/- proliferation, column head only partly shown, read-out: POLQ PD Prolif Lumin (converted)): 3.98 µM

IC50 [1, 3]: > 10 µM
SMILES: CC1(Oc2ncnc3c2nc(-c2ccc(OCCC4(C(=O)O)CC4)cc2Cl)n3Cc2cccc(Cl)c2)CC1 [Example T407, 1-(2-(3-chloro-4-(9-(3-chlorobenzyl)-6-(1-methylcyclopropoxy)-9H-purin-8-yl)phenoxy)ethyl)cyclopropane-1-carboxylic acid]
IC50 [2, 4]: 0.316 µM

IC50 [1, 5]: 10 µM
SMILES: CN(C)CCCOc1ccc(-c2nc3c(OC4(C)CC4)ncnc3n2Cc2cc(C(F)(F)F)ccn2)c(Cl)c1 [Example T329, 3-(3-chloro-4-(6-(1-methylcyclopropoxy)-9-((4-(trifluoromethyl)pyridin-2-yl)methyl)-9H-purin-8-yl)phenoxy)-N,N-dimethylpropan-1-amine]
IC50 [2, 6]: 0.126 µM

IC50 [1, 7]: > 10 µM
SMILES: Cc1ccnc(Cn2c(-c3ccc(CCC(N)=O)cc3Cl)nc3c(OC4(C)CC4)ncnc32)c1 [Example T116, 3-(3-chloro-4-(6-(1-methylcyclopropoxy)-9-((4-methylpyridin-2-yl)methyl)-9H-purin-8-yl)phenyl)propanamide]
IC50 [2, 8]: 0.631 µM

IC50 [1, 7]: > 7.94 µM
SMILES: CC1(Oc2ncnc3c2nc(-c2ccc(OCCCN4CC[C@H](O)C4)cc2Cl)n3Cc2cc(Cl)ccn2)CC1 [Example T503, (S)-1-(3-(3-chloro-4-(9-((4-chloropyridin-2-yl)methyl)-6-(1-methylcyclopropoxy)-9H-purin-8-yl)phenoxy)propyl)pyrrolidin-3-ol]
IC50 [2, 8]: 0.1 µM

IC50 ([1]; DLD-1, second proliferation column, DLD-1 BRCA2 wt control, read-out: POLQ PD Prolif Lumin (converted)): > 10 µM
SMILES: Cc1ccnc(Cn2c(-c3ccc(CC(=O)N4CCC(O)CC4)cc3Cl)nc3c(OC4(C)CC4)ncnc32)c1 [Example T574, 2-(3-chloro-4-(6-(1-methylcyclopropoxy)-9-((4-methylpyridin-2-yl)methyl)-9H-purin-8-yl)phenyl)-1-(4-hydroxypiperidin-1-yl)ethan-1-one]
IC50 ([2]; DLD-1, first proliferation column, DLD-1 BRCA2-/-, read-out: POLQ PD Prolif Lumin (converted)): 1 µM

IC50 [1, 9]: > 10 µM
SMILES: CC1(Oc2ncnc3c2nc(-c2cccc(OCC(=O)O)c2Cl)n3Cc2cccc(Cl)c2)CC1 [Example T41, 2-(2-chloro-3-(9-(3-chlorobenzyl)-6-(1-methylcyclopropoxy)-9H-purin-8-yl)phenoxy)acetic acid]
IC50 [2, 10]: > 7.94 µM

IC50 [1, 11]: > 10 µM
SMILES: CC1(Oc2ncnc3c2nc(-c2ccc(OCC(=O)O)cc2Cl)n3Cc2ccccc2)CC1 [Example D24, 2-(4-(9-benzyl-6-(1-methylcyclopropoxy)-9H-purin-8-yl)-3-chlorophenoxy)acetic acid]
IC50 [2, 12]: > 10 µM

IC50 [1, 7]: > 10 µM
SMILES: CNCCOc1ccc(-c2nc3c(OC4(C)CC4)ncnc3n2Cc2cc(C)ccn2)c(Cl)c1 [Example T137, 2-(3-chloro-4-(6-(1-methylcyclopropoxy)-9-((4-methylpyridin-2-yl)methyl)-9H-purin-8-yl)phenoxy)-N-methylethan-1-amine]
IC50 [2, 8]: 0.2 µM

IC50 [1, 7]: > 10 µM
SMILES: Cc1cc(Cn2c(-c3ccc(OCCN4CCNCC4)cc3Cl)nc3c(OC4(C)CC4)ncnc32)ccn1 [Example T531, 8-(2-chloro-4-(2-(piperazin-1-yl)ethoxy)phenyl)-6-(1-methylcyclopropoxy)-9-((2-methylpyridin-4-yl)methyl)-9H-purine]
IC50 [2, 8]: 6.31 µM

IC50 [1, 7]: > 10 µM
SMILES: Cc1ccnc(Cn2c(-c3ccc(O[C@H]4CCNC4=O)cc3Cl)nc3c(OC4(C)CC4)ncnc32)c1 [Example T185, (S)-3-(3-chloro-4-(6-(1-methylcyclopropoxy)-9-((4-methylpyridin-2-yl)methyl)-9H-purin-8-yl)phenoxy)pyrrolidin-2-one]
IC50 [2, 8]: 0.501 µM

IC50 [1, 11]: > 10 µM
SMILES: C[C@@H]1C(=O)NCCN1CCOc1ccc(-c2nc3c(OC4(C)CC4)ncnc3n2Cc2ccccc2)c(Cl)c1 [Example H22, (R)-4-(2-(4-(9-benzyl-6-(1-methylcyclopropoxy)-9H-purin-8-yl)-3-chlorophenoxy)ethyl)-3-methylpiperazin-2-one]
IC50 [2, 12]: 0.126 µM

IC50 [1, 5]: > 10 µM
SMILES: Cc1ccnc(Cn2c(-c3ccc(CC(=O)NC[C@H](C)O)cc3Cl)nc3c(OC4(C)CC4)ncnc32)c1 [Example T371, (S)-2-(3-chloro-4-(6-(1-methylcyclopropoxy)-9-((4-methylpyridin-2-yl)methyl)-9H-purin-8-yl)phenyl)-N-(2-hydroxypropyl)acetamide]
IC50 [2, 6]: 1 µM

IC50 [1, 11]: > 10 µM
SMILES: Cc1cc(N2CCC(N)CC2)ncc1-c1nc2c(OC3(C)CC3)ncnc2n1Cc1ccccc1 [Example F1, 1-(5-(9-benzyl-6-(1-methylcyclopropoxy)-9H-purin-8-yl)-4-methylpyridin-2-yl)piperidin-4-amine]
IC50 [2, 12]: 0.398 µM

IC50 [1, 11]: 6.31 µM
SMILES: Cc1cc(OCCN2CCN(C)CC2)ccc1-c1nc2c(OC(C)C)ncnc2n1Cc1ccccc1 [Example 1, 9-Benzyl-6-isopropoxy-8-(2-methyl-4-(2-(4-methylpiperazin-1-yl)ethoxy)phenyl)-9H-purine]
IC50 [2, 12]: 0.631 µM

IC50 [1, 9]: > 10 µM
SMILES: Cc1cnc(Cn2c(-c3ccc(CC(N)=O)cc3Cl)nc3c(OC4(C)CC4)ncnc32)s1 [Example T4, 2-(3-chloro-4-(6-(1-methylcyclopropoxy)-9-((5-methylthiazol-2-yl)methyl)-9H-purin-8-yl)phenyl)acetamide]
IC50 [2, 10]: 1.26 µM

IC50 [1, 11]: > 10 µM
SMILES: CC1(Oc2ncnc3c2nc(-c2ccc(OCCN4CCNCC4)cc2Cl)n3Cc2ncccc2C#N)CC1 [Example K11, 2-((8-(2-chloro-4-(2-(piperazin-1-yl)ethoxy)phenyl)-6-(1-methylcyclopropoxy)-9H-purin-9-yl)methyl)nicotinonitrile]
IC50 [2, 12]: 2 µM

IC50 ([1]; DLD-1, 168 h, DLD-1 (BRCA2 wt control), 7 days, Cell Titre Glo 3D, read-out: POLQ PD Prolif Lumin DLD1 Mean pIC50 (converted)): > 10 µM
SMILES: COc1ccc(Cl)cc1Cn1c(-c2cccc(OC[C@@H](C)CC(=O)O)c2Cl)nc2c(OC3(C)CC3)ncnc21 (single isomer, unassigned; isomer 1) [Example 50, 4-(2-Chloro-3-(9-(5-chloro-2-methoxybenzyl)-6-(1-methylcyclopropoxy)-9H-purin-8-yl)phenoxy)-3-methylbutanoic acid (isomer 1)]
IC50 ([2]; DLD-1, 288 h, DLD-1 BRCA2−/−, 12 days, Cell Titre Glo 3D, read-out: POLQ PD Prolif Lumin BRCA2 −/− Mean pIC50 (converted)): 0.00631 µM

SMILES: CC1(Oc2ncnc3c2nc(-c2ccc(O[C@H]4C[C@H](C(=O)O)C4)cc2Cl)n3Cc2cccc(Cl)c2)CC1 [Example T253, (1r,3r)-3-(3-chloro-4-(9-(3-chlorobenzyl)-6-(1-methylcyclopropoxy)-9H-purin-8-yl)phenoxy)cyclobutane-1-carboxylic acid]
POLQ PD Prolif Lumin ([1]; DLD-1 BRCA2 wt control proliferation, column head only partly shown): <5.0
POLQ PD Prolif Lumin ([2]; DLD-1 BRCA2-/- proliferation, column head only partly shown): 6.5

IC50 [1, 11]: > 10 µM
SMILES: CC1(Oc2ncnc3c2nc(-c2ccc(OCCN4CCNCC4)cc2Cl)n3Cc2cccc(C#N)n2)CC1 [Example K9, 6-((8-(2-chloro-4-(2-(piperazin-1-yl)ethoxy)phenyl)-6-(1-methylcyclopropoxy)-9H-purin-9-yl)methyl)picolinonitrile]
IC50 [2, 12]: 1.58 µM

POLQ PD Prolif Lumin DLD1 mean pIC50 ([1]; DLD-1 BRCA2 wt cells, 7 days): 5.8
SMILES: CC(C)Oc1ccc2c(c1)nc(-c1ccc(OC3CCCN(C)CC3)cc1Cl)n2Cc1ccccc1 (single isomer, unassigned) [Example A11, 1-benzyl-2-(2-chloro-4-((1-methylazepan-4-yl)oxy)phenyl)-5-isopropoxy-1H-benzo[d]imidazole]
POLQ PD Prolif Lumin BRCA2 −/− mean pIC50 ([2]; DLD-1 BRCA2−/− cells, 12 days): 6.1
